From patent EP2746260A1, “Substituted [1,2,4]triazole and imidazole compounds” (BASF SE, priority 2012, dated 2014) come the findings set out here.

One experiment deals with Pyricularia oryzae. Type of experiment: cell-based. Conditions: relative growth vs compound-free control (100%), 405 nm, 7 days after inoculation.
The test system of experiment [1] is Botrytis cinerea. The experiment in a line: Long lasting control of Botrytis cinerea on leaves of green pepper (Botrci P7), green house. Type of experiment: in vivo. Conditions: 16ppm spray, inoculated 7 days after treatment, % diseased leaf area after 5 days, untreated control 90. As for the experimental part:
(§1) The stock solution were prepared: a mixture of acetone and/or dimethylsulfoxide and the wetting agent/emulsifier Wettol, which is based on ethoxylated alkylphenoles, in a relation (volume) solvent-emulsifier of 99 to 1 was added to 25 mg of the compound to give a total of 5 ml. Water was then added to total volume of 100 ml. This stock solution was diluted with the described solvent-emulsifier-water mixture to the given concentration.
3. Long lasting control of Botrytis cinerea on leaves of green pepper (Botrci P7)
Young seedlings of green pepper were grown in pots to the 4 to 5 leaf stage. These plants were sprayed to run-off with an aqueous suspension, containing the concentration of active ingredient or their mixture mentioned in the table below. The plants were then cultivated in the greenhouse for 7 days and then inoculated with an aqueous biomalt solution containing the spore suspension of Botrytis cinerea. Then the plants were immediately transferred to a humid chamber. After 5 days at 22 to 24· C and a relative humidity close to 100 % the extent of fungal attack on the leaves was visually assessed as % diseased leaf area.

The test system of another experiment is Puccinia recondita. Kind of experiment: Preventative control of brown rust on wheat (Puccrt P7), green house. Type of experiment: in vivo. Conditions: 16ppm spray, inoculated seven days after treatment, % diseased leaf area, untreated control 90. As for the experimental part:
as §1
5. Preventative control of brown rust on wheat caused by Puccinia recondita (Puccrt P7)
The first two developed leaves of pot-grown wheat seedling were sprayed to run-off with an aqueous suspension, containing the concentration of active ingredient or their mixture as described below. Seven days later the plants were inoculated with spores of Puccinia recondita. To ensure the success the artificial inoculation, the plants were transferred to a humid chamber without light and a relative humidity of 95 to 99 % and 20 to 24· C for 24 h. Then the trial plants were cultivated for 6 days in a greenhouse chamber at 20-24 °C and a relative humidity between 65 and 70 %. The extent of fungal attack on the leaves was visually assessed as % diseased leaf area.

In a further experiment the test system is Phakopsora pachyrhizi. The experiment in a line: Protective control of soy bean rust on soy beans (Phakpa P1), green house. Type of experiment: in vivo. Conditions: 150ppm spray, inoculated 1 day after treatment, % diseased leaf area, untreated control 70.
The test system of experiment [2] is Botrytis cinerea. Kind of experiment: Activity against the grey mold in the microtiterplate test (Botrci). Conditions: relative growth vs compound-free control (100%), 405 nm, 7 days after inoculation. Type of experiment: cell-based.
Experiment [3] relates to Botrytis cinerea. The experiment in a line: Preventative fungicidal control of Botrytis cinerea on leaves of green pepper (Botrci P1), green house. Type of experiment: in vivo. Conditions: 150ppm spray, inoculated next day, % diseased leaf area after 5 days, untreated control 100. As to the method: as §1
2. Preventative fungicidal control of Botrytis cinerea on leaves of green pepper (Botrci P1)
Young seedlings of green pepper were grown in pots to the 4 to 5 leaf stage. These plants were sprayed to run-off with an aqueous suspension, containing the concentration of active ingredient or their mixture mentioned in the table below. The next day the plants were inoculated with an aqueous biomalt solution containing the spore suspension of Botrytis cinerea. Then the plants were immediately transferred to a humid chamber. After 5 days at 22 to 24· C and a relative humidity close to 100 % the extent of fungal attack on the leaves was visually assessed as % diseased leaf area.

In another experiment the test system is Septoria tritici. The experiment in a line: Preventative control of leaf blotch on wheat (Septtr P1), green house. Type of experiment: in vivo. Conditions: 150ppm spray, inoculated following day, % diseased leaf area after 4 weeks, untreated control 100. As for the experimental part: as §1
4. Preventative control of leaf blotch on wheat caused by Septoria tritici (Septtr P1)
Leaves of pot-grown wheat seedling were sprayed to run-off with an aqueous suspension of the active compound or their mixture, prepared as described. The plants were allowed to air-dry. At the following day the plants were inoculated with an aqueous spore suspension of Septoria tritici. Then the trial plants were immediately transferred to a humid chamber at 18-22°C and a relative humidity close to 100 %. After 4 days the plants were transferred to a chamber with 18-22°C and a relative humidity close to 70 %. After 4 weeks the extent of fungal attack on the leaves was visually assessed as % diseased leaf area.

In the case of `OC(Cc1ccccc1Cl)(Cn1ncnc1S)C1(Cl)CC1` (stereo not shown) [Comparative 1, reference compound], in the experiment with Pyricularia oryzae, the “Growth (%) at 8ppm Pyrior” value came out at 33%.
Take `OC(Cc1ccccc1Cl)(Cn1cncn1)C1(Cl)CC1` (stereo not shown) [Comparative 2, reference compound]: the “Disease (%) at 16ppm Botrci P7” value in the experiment on Botrytis cinerea [1] was 30%. The “Disease (%) at 16ppm Puccrt P7” value with Puccinia recondita came to 50%.
For `CC(c1ccccc1Cl)C(O)(C(C)n1cncn1)C1(Cl)CC1` (stereo not shown) [Compound I-1, 3-(1-Chlorocyclopropyl)-2-(2-chlorophenyl)-4-(1,2,4-triazol-1-yl)pentan-3-ol], the “Disease (%) at 150ppm Phakpa P1” value in the experiment with Phakopsora pachyrhizi was found to be 10%. Further, in the experiment on Pyricularia oryzae, the “Growth (%) at 31ppm Pyrior” value stood at 0%. The “Growth (%) at 31ppm Botrci” value in the experiment with Botrytis cinerea [2] was determined as 19%.
For the compound `CC(n1cncn1)C(O)(Cc1ccccc1Cl)C1(Cl)CC1` (stereo not shown) [Compound I-3], in the experiment with Botrytis cinerea [1], the “Disease (%) at 16ppm Botrci P7” value turned out to be 15%. In addition, in the experiment with Phakopsora pachyrhizi, the “Disease (%) at 150ppm Phakpa P1” value is 0%. In addition, the “Disease (%) at 150ppm Botrci P1” value with Botrytis cinerea [3] was found to be 0%. Also, the “Disease (%) at 16ppm Puccrt P7” value in the experiment with Puccinia recondita is reported as 3%. In addition, the “Disease (%) at 150ppm Septtr P1” value in the experiment with Septoria tritici turned out to be 3%. Also, the “Growth (%) at 31ppm Pyrior” value in the experiment with Pyricularia oryzae was determined as 0%. In addition, the “Growth (%) at 31ppm Botrci” value in the experiment with Botrytis cinerea [2] came to 1%.
On to `CC(n1cncn1)C(O)(Cc1ccc(Oc2ccc(Cl)cc2)cc1Cl)C1(Cl)CC1` (stereo not shown) [Compound I-4], for which the “Disease (%) at 150ppm Phakpa P1” value with Phakopsora pachyrhizi amounted to 15%. For the same compound, the “Growth (%) at 31ppm Pyrior” value with Pyricularia oryzae was 6%.
`CC(n1cncn1)C(O)(Cc1ccc(-c2ccc(Cl)cc2)cc1Cl)C1(Cl)CC1` (stereo not shown) [Compound I-5]: in the experiment on Pyricularia oryzae, the “Growth (%) at 31ppm Pyrior” value stood at 10%.
Consider `CC(n1ncnc1S)C(O)(Cc1ccccc1Cl)C1(Cl)CC1` (stereo not shown) [Compound I-6], for which the “Disease (%) at 150ppm Phakpa P1” value with Phakopsora pachyrhizi came out at 0%. In the experiment on Pyricularia oryzae, the “Growth (%) at 8ppm Pyrior” value was determined as 6% and the “Growth (%) at 31ppm Pyrior” value was determined as 0%.
For the compound `CC(c1ccccc1Cl)C(O)(C(C)n1ncnc1S)C1(Cl)CC1` (stereo not shown) [Compound I-7], in the experiment on Pyricularia oryzae, the “Growth (%) at 8ppm Pyrior” value amounted to 0% and the “Growth (%) at 31ppm Pyrior” value is reported as 0%. For the same compound, the “Growth (%) at 31ppm Botrci” value in the experiment on Botrytis cinerea [2] is reported as 0%.
